# Source: patent publication US12174172B2, “Method for evaluating the efficacy of a composition in reducing the effects of cancer therapeutics on skin” (Johnson & Johnson Consumer Inc., priority 2019, dated 2024)
# “Also recorded” adds a separate entry of the source.
# Columns and labels:
# involucrin (IVL) = assay: 3D micro-epidermis model (EpiScreen): involucrin immunostaining; type: cell-based, human
# Method: To assess the effects of such therapy molecules on the epidermis, keratinocytes were grown in the presence of kinase inhibitors during 3 days with high calcium concentration to induce keratinocyte differentiation and generate a 3D-stratified differentiated epidermis. Drug impact on the epidermis development was assessed via different keratinocyte markers including: • Ki-67, an universally expressed protein among proliferating cells and absent in the quiescent cells; • Filaggrin, a filament-associated protein that binds to keratin fibers and is a marker of terminal differentiation; • Desmoglein-1, a component of desmosomes and differentiation marker expressed in all epidermal layer above the basal layer; and • Involucrin, an early differentiation marker expressed in the spinous and granular layers and a protein precursor of the epidermal cornified envelope.
# Human epidermal keratinocytes cells (HPEKs) from a juvenile donor (CellnTec, Switzerland) are cultured in flasks in proliferation medium. Keratinocytes are seeded at passage 6 into EpiScreen™ (Abzena, Cambridge, UK) plates containing collagen 1 coated disc micropatterns (CYTOO, Grenoble, France). Four hours later, unattached cells are washed off and a high calcium medium is added to induce keratinocytes differentiation. The day after, keratinocytes are treated with screening compounds, and Trichostatin A is added at 0.3 μM as an internal positive control. After three days of treatment, micro-epidermises are fixed with a formalin solution 10% for 30 minutes, then permeabilized with 0.1% Triton. Several immunostainings are performed: actin (Acti-Stain 555, PHDH1, Cytoskeleton), nuclei (Hoechst, H3570, Invitrogen), and one biomarker of interest per well either anti-involucrin (HPA055211, Sigma), anti-filaggrin (HPA030189, Sigma) or anti-desmoglein-1 (HPA022128, Sigma). Antibodies are added overnight at 4° C. before staining with secondary antibody, anti-rabbit 488 (711-545-152, Jackson) for 2 hours at room temperature.
# Images of each well are acquired with the Operetta HCS platform (Perkin Elmer, Waltham, MA, USA) using a ×10 objective in confocal mode in eight z-planes from 2 μm to 44 μm in steps of 6 μm in each of the 3 channels: actin, nuclei, and one biomarker of interest. The first step of the image analysis consists in detecting micro-epidermis structures on the first z-plane by segmenting the actin staining. Micro-epidermis structures are validated based on several area and roundness min and max criteria. Then, the area of each biomarker staining is measured inside the valid micro-epidermis masks through each z-plane. For all homogeneous biomarker staining, their intensity through the different planes is measured.
# The actin network of each micro-epidermis is analyzed in each z-plane in order to determine the average 3D structure edges. The biomarker intensity is measured in each z-plane for each structure, and then averaged with the other results generated in the same well. Based on the data generated in the two previous steps, an average 3D reconstruction image is generated. It consists of a meshwork that delimits the structure edges, and a color scaled volume that corresponds to the biomarkers distribution and expression.
# The effect of 8 oncology molecules, selected from first generation EGFRi and pan-kinase inhibitors which mostly target VEGFR and second and third generation therapies targeting main mutations relating to first generation treatment resistance, were assessed in vitro using a 3D micro-epidermis model. […] The drug impact was assessed by analysis of tissue size and keratinocyte proliferation using Ki-67 staining and keratinocyte differentiation using filaggrin, desmoglein-1 and involucrin staining.
# Size of the epidermis and the expression of the protein junction desmoglein-1 (DSG1), involucrin (IVL) and filaggrin (FLG) was assessed by immunostaining and compared to untreated control. […]
# [1] = tested on: SkinEthic Reconstructed Human Epidermis (RHE); assay: Skin barrier function: trans-epidermal water loss (TEWL) on reconstructed human epidermis; type: cell-based; details: day 7; SDS 0.5% topical; afatinib 100 nM in the media
# Method: The effect of drugs on the skin barrier function was assessed by measuring trans-epidermal water loss (TEWL) rates on SkinEthicTM Reconstructed Human Epidermis (RHE) model (Episkin, Lyon, France) using Tewitro® TW 24 (Courage+Khazaka electronic GmbH, Köln, Germany). This instrument allows 24 simultaneous measurements on RHE. TEWL was analyzed at 33° C. in an incubator. […] Petrolatum, a highly hydrophobic hydrocarbon, water-repelling and insoluble in water was used to block water evaporation at the RHE surface (negative control). […] DMSO was used in the same proportion in the vehicle. SkinEthicTM RHE (Episkin, Lyon, France), is an in vitro reconstructed human epidermis from normal human keratinocytes cultured on an inert polycarbonate filter at the air-liquid interface, in a chemically defined medium. This model exists at different stages of maturity. This model is histologically similar to in vivo human epidermis. See […].com/SkinEthic%20RHE. The Tewitro® TW 24 is a device that measures water evaporation from cultured tissue sets (wells in a plate with medium) in up to 24 wells simultaneously. See https://www.courage-[…].
# [2] = most frequent cutaneous adverse reaction reported by the FDA Adverse Event Reporting System; cited from earlier work
smiles,measurement,setting,value
CN(C)C/C=C/C(=O)Nc1cc2c(Nc3ccc(F)c(Cl)c3)ncnc2cc1O[C@H]1CCOC1 [Afatinib],IVL 30 nM,"involucrin (IVL); 30 nM, supplementary data",12%
same,activation at 0.1 µM,"involucrin (IVL); Homo sapiens, 72 h, 100 nM, supplementary data, two runs, Tox = toxic",16%
same,activation at 1 µM,"involucrin (IVL); Homo sapiens, 72 h, 1 μM, supplementary data, two runs, Tox = toxic",27%
same,IVL expression,involucrin (IVL); Table 1 summary,Increased
same,involucrin expression,"involucrin (IVL); concentration (afatinib 3, 10, 30 nM; pan-kinase inhibitors 100 nM)",significantly increased; also recorded: increased in a dose-dependent manner
same,increase of the TEWL rate,[1],no significant change
same,Major Skin Effect,[2],Rash
